Assay results from patent EP0925782A2, “Cosmetics” (SOGO PHARMACEUTICAL COMPANY LIMITED, priority 1997, dated 1999).
Where a name gives a salt, the structure may show the parent alone.

Experiments:
[1] = Test for a moisturizability (weight change after standing at constant temperature and humidity); type: physicochemical; conditions: dried sample, 20°C, humidity 75% for 7 days, then 20°C, humidity 45% for 7 days, evaluated from change in weight
Protocol: Approximately one gram of a sample was taken in a weighing bottle, and dried with diphosphorus pentoxide under reduced pressure for 4 hours. The resulting sample was used in the following test. The weight was accurately measured, and the sample was allowed to stand in a constant temperature and constant humidity box having a temperature of 20°C and a humidity of 75% for 7 days. Subsequently, the sample was moved in a constant temperature and constant humidity box having a temperature of 20°C and a humidity of 45%, and allowed to stand for 7 days. The moisturizability was evaluated from the change in weight. As a control sample, glycerin was used. […]

[2] = test system: rat; conditions: p. o.; cited from earlier work

Question: For N[C@@H](CCC(=O)NCCS(=O)(=O)O)C(=O)O [Glutaurine sodium salt, glutaurine sodium salt], which “Water holding capacity (%)” value ([1]; sodium salt) is on record?
Answer: The value was 19.45%.

Question: Which “Water holding capacity (%)” value [1] does the source give for N[C@@H](CCC(=O)NCCS(=O)(=O)O)C(=O)O [Glutaurine, glutaurine] here?
Answer: Its value is 17.12%.

Question: And the LD50 [2]?
Answer: Its LD50 is over 1000 mg/kg.

Question: For OCC(O)CO [Glycerin, glycerin, reference compound], which “Water holding capacity (%)” value [1] is on record?
Answer: Its value is 19.88%.
